The test has as its target cyclin B1 (CCNB1) (Homo sapiens, UniProt P14635). The test is described as follows: SPR. It is filed as binding.

Chain of cyclin B1 (CCNB1) (P14635 whole entry): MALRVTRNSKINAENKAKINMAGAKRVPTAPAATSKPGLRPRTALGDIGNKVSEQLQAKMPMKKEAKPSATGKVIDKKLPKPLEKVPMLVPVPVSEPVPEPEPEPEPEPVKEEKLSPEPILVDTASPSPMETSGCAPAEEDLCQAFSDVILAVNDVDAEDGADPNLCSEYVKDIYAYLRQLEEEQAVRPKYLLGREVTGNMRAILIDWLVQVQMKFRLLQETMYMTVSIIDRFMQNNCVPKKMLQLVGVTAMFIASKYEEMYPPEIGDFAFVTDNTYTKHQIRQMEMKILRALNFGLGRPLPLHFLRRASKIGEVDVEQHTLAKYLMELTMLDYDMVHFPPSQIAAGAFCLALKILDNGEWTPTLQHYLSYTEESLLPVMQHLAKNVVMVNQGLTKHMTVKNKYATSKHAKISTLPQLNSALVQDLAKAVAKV

Turning to `O=c1cc(-c2ccc(O)c(O)c2)oc2cc(O)cc(O)c12` [Luteolin, 3′,4′,5,7-tetrahydroxyflavone], the Kd (as a rule, the equilibrium constant for the complex coming apart) was approximately 36.7 µM.

(Values after publication PMC12658050 (Scientific Reports, 2025).)
